Target: Protein Tat (Human immunodeficiency virus type 1 group M subtype B (isolate HXB2)) (UniProt P04608)
Assay: HIV-1 Tat–TAR interaction blockers – biochemical, fluorescence polarization, FAM-labeled TAR RNA, counter-screen for Vif-APOBEC3G degradation inhibitor project, dose response (AID 1117361)
Conditions: Tat-TAR RNA binding

Sequence of Protein Tat (Human immunodeficiency virus type 1 group M subtype B (isolate HXB2)) (P04608 whole entry, looked up): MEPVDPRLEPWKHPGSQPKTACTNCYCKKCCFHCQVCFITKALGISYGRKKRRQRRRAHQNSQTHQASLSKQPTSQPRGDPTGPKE

Structure (SMILES)	IC50
Cc1cc(O)c(-c2cc(O)c(C)cc2O)cc1O	89.7 µM
CC1CC(=O)c2c(cc3c(-c4c(O)cc(O)c5c(O)c6c(cc45)OC(C)CC6=O)c(O)cc(O)c3c2O)O1 (stereo not drawn)	7.62 µM
COc1cccc2c1NC(C(=O)O)C1CC=CC21 (stereo not drawn)	1.87 µM
CC(=O)Nc1cccc(Oc2ncnc3scc(-c4ccccc4)c23)c1	31 µM
Cc1ccc(NC(=O)CN2C(=O)N/C(=C/c3ccco3)C2=O)cc1	36 µM
Cc1ccc(C2C(C#N)=C(N)Oc3c2oc(CO)cc3=O)o1 (stereo not drawn)	5.77 µM
O=C(N/N=C/C=C/c1ccco1)c1cccs1	11.6 µM
O=C1c2cccnc2C(Nc2ccccc2)N1Cc1ccco1 (stereo not drawn)	79.2 µM
Cc1ccc(C2SCC(=O)N2Cc2cn3ccsc3n2)o1 (stereo not drawn)	68.5 µM
CC(C)C(C(=O)O)N1C(=O)/C(=C/C=C/c2ccco2)SC1=S (stereo not drawn)	1.4 µM
Cc1cc(C(=O)CSc2nnnn2C)c(C)n1CCc1ccc(Cl)cc1	84.6 µM
O=C(N/N=C/C(Br)=C/c1ccccc1)c1cc(-c2ccco2)[nH]n1	8.53 µM
CCOc1cccc(=O)c2c(C)n(CC(=O)c3ccccc3)c(C)c12	18.6 µM
CCN(CC)Cc1cc(O)c(CN(CC)CC)cc1O	4.37 µM
O=C(O)Cc1cccc(=O)c(O)c1C(=O)O	54.7 µM
N#C/C(=C\c1ccc([N+](=O)[O-])o1)C(=O)Nc1ccc(F)cc1	55.6 µM
O=[N+]([O-])c1ccc(-c2ccc(/C=N/c3c(-c4ccco4)nc4ccccn34)o2)cc1	1.4 µM
O=C1NC(=O)N(c2ccccc2)C(=O)/C1=C\c1ccc([N+](=O)[O-])s1	10.7 µM
Cc1nn(-c2ccccn2)c2c1C(=O)C(Br)CC2 (stereo not drawn)	8.82 µM
CC1(C)OC(=O)C(=C2CCCN2)C(=O)O1	0.882 µM
O=C1/C(=C/C=C/c2ccco2)SC(=S)N1NS(=O)(=O)c1ccccc1	2.48 µM
Cc1cccc(/C=C(\C(=O)O)c2ccc(S(=O)(=O)N3CCCC3)s2)c1	98 µM
O=C1Cc2cccc(=O)c(O)c2C(=O)O1	87.7 µM
CCC1=NN2C(=N)/C(=C\c3ccc(SCc4ccco4)o3)C(=O)N=C2S1	63.3 µM

Structure (SMILES)	IC50
CCCC(=Nc1ccc(N)cc1)C1=C(O)C(C(=O)OC)C(C)(C)CC1=O (stereo not drawn)	6.88 µM
NC1=NC(=O)/C(=C\c2ccco2)S1	6.09 µM
CCc1ccccc1NC(=O)c1cccc(NC(=O)/C=C/c2ccco2)c1	26.6 µM
O=S(=O)(O)c1cc(O)c2ccc(Nc3ccccc3)cc2c1	12.5 µM
O=C1NC(=S)N(c2ccccc2)C(=O)/C1=C/c1ccco1	16.2 µM
COc1ccc(O)c(C(=O)C2c3ccccc3C(=O)N2c2ccc(C)cc2)c1 (stereo not drawn)	0.303 µM
O=C1/C(=C\c2ccco2)SC(=S)N1Cc1ccccc1	17.5 µM
O=C(NCCc1ccccc1)c1ccc2nc(-c3ccco3)c(-c3ccco3)nc2c1	33.1 µM
COC(=O)Cn1c(CCC(=O)O)ccc1-c1ccccc1	42.3 µM
Oc1ccc(NCc2cccc(OCc3ccccc3)c2)cc1	66.7 µM
CC(=O)C1=C(C)NC(C)=C(C(C)=O)C1c1cccs1	91.4 µM
Cc1c(C(=O)O)cccc1-n1c(C)cc(/C=N/Nc2ccc([N+](=O)[O-])cn2)c1C	64 µM
Cc1c(Cl)cccc1NS(=O)(=O)c1ccc2c(c1)C1C=CCC1C(c1ccc(C(=O)O)cc1)N2 (stereo not drawn)	8.54 µM
O=[N+]([O-])c1ccccc1S(=O)(=O)NC1CCCC1	45 µM
Cc1ccc(SCCN2C(=O)NC(C)(C)C2=O)cc1	24.8 µM
Cc1ccc(-c2c3c([nH]c(=S)c2C#N)CCCC3)o1	21.2 µM
COC/C=C/C1=CC2=CC(=O)C(C)(OC(=O)c3cnc4ccccc4n3)C(=O)C2=CN1c1ccccc1 (stereo not drawn)	22.3 µM
Cc1ccc(S(=O)(=O)Cn2nnnc2C(CC(C)C)N2CCN(C)CC2)cc1 (stereo not drawn)	22.6 µM
O=C1C2C3C=CC(C3)C2C(=O)N1CNc1ccc(O)cc1 (stereo not drawn)	25.7 µM
CC(=O)Nc1ccc(S(=O)(=O)Nc2nc3ccccc3nc2Nc2ccc(C(=O)O)c(O)c2)cc1	32.2 µM
c1coc(-c2nc(-c3ccco3)c(-c3ccco3)nc2-c2ccco2)c1	2.19 µM
CN(C)c1ccc(O)c2c1CC1CC3[C@@H](N(C)C)C(=O)C(C(N)=O)=C(O)[C@]3(O)C(=O)C1=C2O (stereo partly drawn)	6.14 µM
NC(=O)/C(=C/c1ccco1)C(N)=S	12 µM
CCN(C(=O)c1coc(=O)c(Br)c1)c1ccc2c(c1)OCO2	1.17 µM

Structure (SMILES)	IC50
CCc1nc2oc3cc(OC)ccc3c(=O)c2c(=O)n1Cc1ccco1	24 µM
Cc1cc(C)cc(NC(=O)CSc2nc3c(c(=O)n2C)SC(C)C3)c1 (stereo not drawn)	56.9 µM
Cc1ccc(/C=C/C(=O)Nc2cccc(S(=O)(=O)N3CCOCC3)c2)o1	89.1 µM
Cc1noc(/C=C/c2ccco2)c1S(=O)(=O)N1CCC(C(=O)NCc2ccco2)CC1	6.93 µM
Cc1cc(NC(=O)CCNS(=O)(=O)c2cc(Br)cnc2N)ccc1Br	93.7 µM
Cc1cccc(NC(=S)NC(=O)/C=C/c2ccco2)c1	20.2 µM
CCC(=O)NC1=C(Cl)C(=O)C(NC(=O)CC)=C(Cl)C1=O	79.8 µM
CCCCNC(=O)c1ccc2nc(-c3ccco3)c(-c3ccco3)nc2c1	6.84 µM
COc1cccc(=O)c2c(C)n(-c3ccc(C(=O)O)cc3)c(C)c12	3.06 µM
O=C1CC(Nc2ccc(N3CCOCC3)cc2)C(=O)N1C1CCCCC1 (stereo not drawn)	11.6 µM
O=C(O)/C(=C/c1ccco1)NC(=O)c1ccccc1	15.3 µM
O=C(NCCc1c[nH]c2ccccc12)c1ccc(S(=O)(=O)NCc2ccco2)cc1	48.3 µM
COc1cc2[nH]c(Cl)c([N+](=O)[O-])c2cc1OC	24.3 µM
COc1ccc(C2=CC(c3ccc(Cl)cc3)n3cnnc3N2)cc1OC (stereo not drawn)	6.19 µM
N#CC(C#N)=Cc1cccn1-c1ccc(C(=O)O)cc1	33.3 µM
Cn1c(O)c(/C=N/NC(=O)c2ccncc2)c(=O)[nH]c1=S	51.8 µM
CC(=O)NN1C(=O)/C(=C/c2ccc(Br)o2)SC1=S	36.2 µM
CCOC(=O)c1cnn2c(N)c(C#N)nnc12	45.7 µM
CC(=O)c1ccc(NC(=O)CSc2nnc(-c3ccco3)c(-c3ccco3)n2)cc1	6.61 µM
CNc1cccccc1=S	4.41 µM
O=C(NCc1ccccc1Cl)c1csc2c1CCCCC2	27.2 µM
O=C1c2sc3nc4n(c(=O)c3c2CCC1Br)CCCCC4 (stereo not drawn)	4.82 µM
COc1ccc(NC(=O)/C(C#N)=C\c2ccc(Br)o2)cc1	60.8 µM
Cc1cccc(N/N=C/c2ccc(O)c(O)c2O)c1	36 µM

Structure (SMILES)	IC50
CCCCC1=CC2=C(c3ccco3)C(=O)C(C)(OC(=O)c3ccc(OC)cc3)C(=O)C2=CN1CCCCO (stereo not drawn)	29.3 µM
O=C(NC1CCCC1)c1ccc2nc(-c3ccco3)c(-c3ccco3)nc2c1	2.08 µM
Cc1cc(C(=O)CSc2nnnn2-c2ccccc2)c(C)n1CC1CCCO1 (stereo not drawn)	35 µM
CC(C)Cn1c(SCC(=O)NC(=O)Nc2ccc3c(c2)OCCO3)nc2ccccc2c1=O	1.62 µM
O=C(Nc1ccc(Cl)cc1)Nc1ccc(N2CCC(C(F)(F)F)CC2)nc1	32.5 µM
CC1(c2ccc3noc(-c4ccccc4)c3c2)OCCO1	2.87 µM
COc1ccccc1-n1c(-c2cc(-c3ccco3)[nH]n2)n[nH]c1=S	5.36 µM
Oc1ccc2c(c1)C1CCCC1(N1CCOCC1)O2 (stereo not drawn)	23.1 µM
Cc1cccn2c(=O)c3cc(C(=O)NCc4ccco4)c(=N)n(CCc4ccccc4)c3nc12	11.8 µM
CC1(C)Cc2nc3sc(C(=O)O)c(N)c3cc2CS1	28.3 µM
CC1C/C(=C/c2ccco2)C(=O)/C(=C/c2ccco2)C1 (stereo not drawn)	3.92 µM
CSc1nnc(-c2ccco2)c(-c2ccco2)n1	6.07 µM
CCOC(=O)C1CCCN(C(=O)c2cc(-c3ccco3)nc3ccccc23)C1 (stereo not drawn)	27.8 µM
O=C1NC(=S)S/C1=C\C=C\c1ccc([N+](=O)[O-])o1	2.76 µM
CCOC(=O)C1=C(C)N=C2SC(C(=O)OC)=CC(=O)N2C1c1cc(OC)c(OC)c(OC)c1 (stereo not drawn)	31.4 µM
COC(=O)COc1ccc(S(=O)(=O)Nc2cc(OC)ccc2OC)cc1	28.2 µM
CN(C)C(=O)c1nc2ccc(Cl)cn2c1CN1CCCC(OCc2ccccc2)C1 (stereo not drawn)	44.6 µM
Cc1cc2ccccc2n1CCNC(=O)C1CCCCC1	23.5 µM
COc1ccc(NC(=O)N2c3ccc(OC)cc3C(C)=CC2(C)C)cc1	3.29 µM
O=C(c1cc(-c2ccco2)on1)N1CCN(c2ccccc2)CC1	18.6 µM
CCOc1ccccc1C(O)C1=CC(=O)c2ccccc2C1=O (stereo not drawn)	77.7 µM
CCc1cc(=O)oc2cc(C)c(CN3CCCC3)c(O)c12	5.84 µM
COc1ccc2c3c(cccc13)N(C)N=C2C	11.1 µM
O=c1[nH]nc(CNc2ccc(O)cc2)c2ccccc12	33.7 µM

Structure (SMILES)	IC50
CCOc1cccc(CNCCNC(=O)c2nonc2N)c1	84.2 µM
COc1cccc(N2C(=O)NC(=O)/C(=C/c3ccc([N+](=O)[O-])s3)C2=O)c1	34.3 µM
O=C1CC(SC(=S)C2CCCC2=O)C(=O)N1 (stereo not drawn)	3.21 µM
C=CCN1C(=O)/C(=C\c2ccco2)C(C(=O)OC)=C1C	45.9 µM
Cc1ccc(Cl)cc1N1CCN(C(=O)COc2ccc3c(c2)CCC3)CC1	57.2 µM
O=C1NC(c2ccc(Br)cc2)=N/C1=C/c1ccco1	6.78 µM
Cc1cc(O)ccc1-c1cnc2ccccc2n1	80.8 µM
CCOC(=O)c1c(N)sc(=S)c2c1CCC2	52 µM
CC1=CC(=Nc2c(C)n(C)n(-c3ccccc3)c2=O)C=CC1=O	14.5 µM
CC1=CC(C)(C)Nc2ccc(OC(=O)CN3C(=O)c4cccc5cccc(c45)C3=O)cc21	15.3 µM
NC(CO)C(=O)NNCc1ccc(O)c(O)c1O (stereo not drawn)	8.84 µM
CCOC(=O)CNc1ccc2c(c1)OCO2	1.47 µM
Cc1ccc(C)c(-n2c(Cc3cc(=O)[nH]c(=O)[nH]3)nnc2SC(C)C)c1	77 µM
O=C1C(Cl)=C(N2CCOCC2)C(=O)N1c1ccccc1	16.6 µM
Cc1ccc2c(c1C)NC(C(=O)O)C1CC=CC21 (stereo not drawn)	34.7 µM
CC1=C(C(=O)Nc2ccccc2F)C(c2ccsc2)C2=C(CC(c3ccccc3)CC2=O)N1 (stereo not drawn)	4.06 µM
CCCN1C(=O)S/C(=C\c2ccc(N3CCOCC3)cc2C)C1=O	1.92 µM
O=C(CN1CCN(S(=O)(=O)c2ccc(Cl)cc2)CC1)Nc1ccc2c(c1)OCCO2	1.31 µM
NN=C1C(Cl)=C(Cl)C(Cl)=C1Cl	62.9 µM
COc1cc(CNCCc2ccc(F)cc2)ccc1OCc1ccc(Cl)nc1	9.8 µM
O=C(Nc1ccccc1N1CCCC1)c1ccc(Br)o1	59.6 µM
CCOC(=O)COc1nc(-c2ccco2)cc(-c2ccco2)c1C#N	8.34 µM

Reference: PubChem BioAssay AID1117361 (Southern Research Institute, 2015)
